molecular target: STING (Homo sapiens, UniProt Q86WV6); test: STING antagonist activity, cell-based ISG54 promoter-reporter luciferase measurement of IRF activity (THP-1 dual / RAW-ISG cells); settings: Antagonist Activity of Exemplary Compounds; cell line and agonist not given
Procedure: THP-1 dual cells (InvivoGen) were cultured under 5% CO2 at 37° C. in RPMI containing 10% fetal bovine serum (FBS), 100 IU mL-1 penicillin and 100 μg mL-1 streptomycin. RAW-ISG cells (InvivoGen) were cultured under 5% CO2 at 37° C. in DMEM containing 10% fetal bovine serum (FBS), 100 IU mL-1 penicillin and 100 μg mL-1 streptomycin. THP-1 dual cells were seeded into the 96 well assay plate on the day of assay whereas RAW cells were seeded into the 96 well assay plate 18 hours before the assay.
(§1) 50,000 cells seeded in a 96-well flat bottom white assay plate were treated with different concentrations (10 uM to 0.01 uM) of compounds for 1 h followed by STING induction with either 30 nM SB 11285 or 10 ug/mL 2′-3′ cGAMP. The cells were then incubated for 20 hours @ 37° C. in CO2 incubator before measuring IRF activation by using Quanti-Luc (InvivoGen). The % inhibition was calculated as 100−{[(luminescence of COI treated well/luminescence of non-COI treated well)/100]×100}. IC50 was calculated by plotting in Xlfit.
as §1, with “1 μM” for “30 nM”
THP1-Dual-WT cells (InvivoGen) were plated into 96-well flat bottom plate at 5×10^4 cells/140 μL/well in triplicate. Cells were then treated with diluted antagonist compounds at 10 μL/well for 1 h, followed by treatment with compounds or 2′3′-cGAMP/lipo mixture for 18 h. The levels of IRF activity were determined using Quanti-luc (InvivoGen) and calculated against IRF activity in DMSO-treated cells. IC50 and CC50 values were calculated using Xlfit.

Chain of STING (Q86WV6 whole entry): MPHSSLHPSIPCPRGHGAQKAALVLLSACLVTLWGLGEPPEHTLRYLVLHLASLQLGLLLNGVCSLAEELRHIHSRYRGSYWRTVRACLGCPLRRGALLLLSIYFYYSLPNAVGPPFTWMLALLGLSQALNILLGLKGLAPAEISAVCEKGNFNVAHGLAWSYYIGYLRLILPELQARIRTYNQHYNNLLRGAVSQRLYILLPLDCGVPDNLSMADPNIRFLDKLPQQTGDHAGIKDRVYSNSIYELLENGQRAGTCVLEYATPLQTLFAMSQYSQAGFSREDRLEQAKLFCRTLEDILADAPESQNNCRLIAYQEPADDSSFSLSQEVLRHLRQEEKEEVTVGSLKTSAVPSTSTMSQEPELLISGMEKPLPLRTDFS

Row | Structure (SMILES) | IC50
1 | CC(=O)OCCCCCCCCn1c(C)nc2nc(Cl)nc(Cl)c21 [Compound 151, 8-(2,6-dichloro-8-methyl-7H-purin-7-yl)octyl acetate] | 1000 to 5000 nM

same assay, conditions: Antagonist Activity of Exemplary Compounds; cell line and agonist not given; read-out: IC50

Row | Structure (SMILES) | IC50
2 | COC(=O)CCCCCCCCCCCCCCCn1c(C(C)C)nc2nc(Cl)nc(Cl)c21 [Compound 89, methyl 16-(2,6-dichloro-8-isopropyl-7H-purin-7-yl)hexadecanoate] | 1 to 1000 nM
3 | CCCCCCCCC(C(=O)OCC)n1cnc2c(Cl)nc(Cl)nc21 (centres unmarked) [Compound 18, ethyl 2-(2,6-dichloro-9H-purin-9-yl)decanoate] | 1000 to 5000 nM
4 | COC(=O)CCCCCCCCCn1c(C)nc2nc(Cl)nc([S+]([O-])C(C)C)c21 (centres unmarked) [Compound 124, methyl 10-(2-chloro-6-(isopropylsulfinyl)-8-methyl-7H-purin-7-yl)decanoate] | 1 to 1000 nM
5 | Cc1nc2nc(Cl)nc(Cl)c2n1CCCCCCCCCCCCCCCc1nnnn1C [Compound 101, 2,6-dichloro-8-methyl-7-(15-(1-methyl-1H-tetrazol-5-yl)pentadecyl)-7H-purine] | 1 to 1000 nM
6 | COC(=O)CCCCn1cnc2nc(Cl)nc(Cl)c21 [Compound 32, methyl 5-(2,6-dichloro-7H-purin-7-yl)pentanoate] | 1000 to 5000 nM
7 | Cc1nc2nc(Cl)nc(Cl)c2n1CCCCCCCCCCCCCCCC(=O)OC(C)(C)C [Compound 81, tert-butyl 16-(2,6-dichloro-8-methyl-7H-purin-7-yl)hexadecanoate] | 1000 to 5000 nM
8 | Cc1nc2nc(Cl)nc(S(=O)(=O)C(C)C)c2n1CCCCCCCCCCCCCCCC(=O)N(C)C [Compound 150, 16-(2-chloro-6-(isopropylsulfonyl)-8-methyl-7H-purin-7-yl)-N,N-dimethylhexadecanamide] | 1 to 1000 nM
9 | Cc1nc2nc(Cl)nc(Cl)c2n1CCCCCCCCCCCCCCCCP(=O)(O)O [Compound 110, (16-(2,6-dichloro-8-methyl-7H-purin-7-yl)hexadecyl)phosphonic acid] | > 20000 nM
10 | COC(=O)CCCCn1c(C)nc2nc(Cl)nc(Cl)c21 [Compound 60, methyl 5-(2,6-dichloro-8-methyl-7H-purin-7-yl)pentanoate] | 5000 to 10000 nM
11 | Clc1nc(Cl)c2c(ncn2CCCCCCCCCCCCn2cnc3nc(Cl)nc(Cl)c32)n1 [Compound 35, 1,12-bis(2,6-dichloro-7H-purin-7-yl) dodecane] | 1000 to 5000 nM
12 | Cc1nc2nc(Cl)nc(Cl)c2n1C [Compound 82, 2,6-dichloro-7,8-dimethyl-7H-purine] | 5000 to 10000 nM
13 | COC(=O)CCCCCCCCCCCCCCCn1c(C)nc2nc(Cl)nc([S+]([O-])C(C)C)c21 (centres unmarked) [Compound 128, methyl 16-(2-chloro-6-(isopropylsulfinyl)-8-methyl-7H-purin-7-yl)hexadecanoate] | 1 to 1000 nM
14 | COC(=O)CCCCCCCCCCCCCCCn1c(O)nc2c(Cl)nc(Cl)nc21 [Compound 53, methyl 16-(2,6-dichloro-8-oxo-7,8-dihydro-9H-purin-9-yl)hexadecanoate] | > 20000 nM
15 | COC(=O)CCCN1CCN(CCCCCCn2c(C)nc3nc(Cl)nc(Cl)c32)CC1 [Compound 153, Methyl 4-(4-(6-(2,6-dichloro-8-methyl-7H-purin-7-yl)hexyl)piperazin-1-yl)butanoate] | 1000 to 5000 nM
16 | Clc1nc(Cl)c2c(ncn2C/C=C\Cn2cnc3nc(Cl)nc(Cl)c32)n1 [Compound 58, (Z)-1,4-bis(2,6-dichloro-7H-purin-7-yl)but-2-ene] | > 20000 nM
17 | COC(=O)CCCCCCn1cnc2nc(Cl)nc(Cl)c21 [Compound 13] | 1 to 1000 nM
18 | OCCCCCCn1cnc2nc(Cl)nc(Cl)c21 [Compound 45, 6-(2,6-dichloro-7H-purin-7-yl)hexan-1-ol] | 1000 to 5000 nM
19 | COC(=O)CCCCCCCCCCCCCCCn1ccc2nc(Cl)nc(Cl)c21 [Compound 4] | > 20000 nM
20 | COC(=O)CCCCCCCCCCCCCCCn1c(CCl)nc2nc(Cl)nc(Cl)c21 [Compound 91, Methyl 16-(2,6-dichloro-8-(chloromethyl)-7H-purin-7-yl)hexadecanoate] | 1 to 1000 nM
21 | COC(=O)CCCn1c(C)nc2nc(Cl)nc(S(=O)(=O)C(C)C)c21 [Compound 118, methyl 4-(2-chloro-6-(isopropylsulfonyl)-8-methyl-7H-purin-7-yl)butanoate] | 1000 to 5000 nM

Row | Structure (SMILES) | IC50
22 | COC(=O)CCCCCCCCCCCCCCCn1c(C)nc2nc(Cl)nc(S(=O)(=O)C(C)C)c21 [Compound 74, methyl 16-(2-chloro-6-(isopropylsulfonyl)-8-methyl-7H-purin-7-yl)hexadecanoate] | 1 to 1000 nM
23 | COC(=O)CCCCCCCCCCCCCCCn1c(O)nc2nc(Cl)nc(Cl)c21 [Compound 52, methyl 16-(2,6-dichloro-8-oxo-8,9-dihydro-7H-purin-7-yl)hexadecanoate] | > 20000 nM
24 | Cc1nc2nc(Cl)nc(S(=O)(=O)C(C)C)c2n1CCCCCCCCCCCCCCCC(=O)OCCO [Compound 144, 2-hydroxyethyl 16-(2-chloro-6-(isopropylsulfonyl)-8-methyl-7H-purin-7-yl)hexadecanoate] | 1 to 1000 nM
25 | CC(=O)OCCCCCn1cnc2nc(Cl)nc(Cl)c21 [Compound 33, 5-(2,6-dichloro-7H-purin-7-yl)pentyl acetate] | 1000 to 5000 nM
26 | COC(=O)CCCn1c(C)nc2nc(Cl)nc(Cl)c21 [Compound 116, methyl 4-(2,6-dichloro-8-methyl-7H-purin-7-yl)butanoate] | 5000 to 10000 nM
27 | CCCCCCCCCCCCCCCCn1c(CO)nc2nc(Cl)nc(Cl)c21 [Compound 119, (2,6-dichloro-7-hexadecyl-7H-purin-8-yl)methanol] | 1 to 1000 nM
28 | COC(=O)CCCCCCNCCCCCCCCn1c(C)nc2nc(Cl)nc(Cl)c21 [Compound 155, Methyl 7-((8-(2,6-dichloro-8-methyl-7H-purin-7-yl)octyl)amino)heptanoate] | 1 to 1000 nM
29 | COC(=O)CCCCn1c(C)nc2nc(Cl)nc(S(=O)(=O)C(C)C)c21 [Compound 121, methyl 5-(2-chloro-6-(isopropylsulfonyl)-8-methyl-7H-purin-7-yl)pentanoate] | 1000 to 5000 nM
30 | CCOC(=O)Cn1cnc2nc(Cl)nc(Cl)c21 [Compound 8] | 1 to 1000 nM
31 | Cc1nc2nc(Cl)nc(S(=O)(=O)C(C)C)c2n1CCCCCCCCCCCCCCCC(=O)OC(C)C [Compound 96, isopropyl 16-(2-chloro-6-(isopropylsulfonyl)-8-methyl-7H-purin-7-yl)hexadecanoate] | 1 to 1000 nM
32 | Cc1nc2nc(Cl)nc(S(=O)(=O)C(C)C)c2n1CCCCCCCCCCCCCCCC(=O)OC[C@@H](O)CO [Compound 135, (S)-2,3-dihydroxypropyl 16-(2-chloro-6-(isopropylsulfonyl)-8-methyl-7H-purin-7-yl)hexadecanoate] | 1 to 1000 nM
33 | COC(=O)CCCCCCCCCCCCCCCn1c(C)nc2nc(Cl)nc(OCCN(C)C)c21 [Compound 108, methyl 16-(2-chloro-6-(2-(dimethylamino)ethoxy)-8-methyl-7H-purin-7-yl)hexadecanoate] | 1000 to 5000 nM
34 | Cc1nc2nc(Cl)nc(Cl)c2n1CCCCCCCCCCCCn1c(C)nc2nc(Cl)nc(Cl)c21 [Compound 59, 1,12-bis(2,6-dichloro-8-methyl-7H-purin-7-yl)dodecane] | 1 to 1000 nM
35 | COC(=O)CCCCCCNCCCCCCCCn1c(C)nc2nc(Cl)nc(S(=O)(=O)C(C)C)c21 [Compound 168, methyl 7-((8-(2-chloro-6-(isopropylsulfonyl)-8-methyl-7H-purin-7-yl)octyl)amino)heptanoate] | 1 to 1000 nM
36 | COC(=O)CCCCCCCCCCCCCCCn1cnc2ncnc(S(C)(=O)=O)c21 [Compound 28, methyl 16-(6-(methylsulfonyl)-7H-purin-7-yl)hexadecanoate] | 1 to 1000 nM
37 | Cc1nc2nc(Cl)nc(S(=O)(=O)C(C)C)c2n1CCCCCCCCCCCCCCCC(=O)OCC1CC1 [Compound 158, Cyclopropylmethyl 16-(2-chloro-6-(isopropylsulfonyl)-8-methyl-7H-purin-7-yl)hexadecanoate] | 1 to 1000 nM
38 | COC(=O)CCCCCCCCCCCCCCCn1cnc2nc(Cl)nc(N(C)C)c21 [Compound 24, methyl 16-(2-chloro-6-(dimethylamino)-7H-purin-7-yl)hexadecanoate] | 1000 to 5000 nM
39 | Cc1nc2nc(Cl)nc(S(=O)(=O)C(C)C)c2n1CCCCCCCCCCN1CCOCC1 [Compound 137, 4-(10-(2-chloro-6-(isopropylsulfonyl)-8-methyl-7H-purin-7-yl)decyl)morpholine] | 1000 to 5000 nM
40 | Cc1nc2nc(Cl)nc(Cl)c2n1CCCCCCO [Compound 62, 6-(2,6-dichloro-8-methyl-7H-purin-7-yl)hexan-1-ol] | 1000 to 5000 nM
41 | OCCCCCCCCCCn1cnc2nc(Cl)nc(Cl)c21 [Compound 40, 10-(2,6-dichloro-7H-purin-7-yl)decan-1-ol] | 1 to 1000 nM

— patent publication US20220168309A1 (F-STAR THERAPEUTICS, INC., priority 2019, published 2022)
